According to patent publication US11034913B2, “Metal working fluid” (Henkel AG & Co. KGaA, priority 2015, dated 2021):
“Also recorded” adds a separate entry of the source.

Test system: mixed Gram-negative bacteria
Assay: Minimum inhibitory concentration testing (biostat candidate screening, Phase 1 and Phase 2; dip slide counts)
Format: cell-based
Details: for Differential Value Scores, Average / Differential Value Scores, Round 1 / Differential Value Scores, Round 2 / Differential Value Scores, Round 3: Phase 1, scale 0-6, 3 = matches DCHA standard; for Differential Value Scores, Average: average of Rounds 1-3; for Differential Value Scores, Round 1 / Differential Value Scores, Round 2 / Differential Value Scores, Round 3: log bacterial counts at 24 and 48 h versus DCHA standard, higher = better; for Biostatic efficacy regarding Gram-negative bacteria compared with the DCHA standard: result in words, 3 wt. % amine in metal working fluid
[1] = Phase 2, Round 1, dilution 3 %, 24 hours
[2] = Phase 2, Round 1, dilution 3 %, 48 hours
[3] = Phase 2, Round 1, dilution 4 %, 24 hours
[4] = Phase 2, Round 1, dilution 4 %, 48 hours
[5] = Phase 2, Round 1, dilution 5 %, 24 hours
[6] = Phase 2, Round 1, dilution 5 %, 48 hours
[7] = Phase 2, Round 2, dilution 4 %, 24 hours
[8] = Phase 2, Round 2, dilution 4 %, 48 hours
[9] = Phase 2, Round 2, dilution 5 %, 24 hours
[10] = Phase 2, Round 2, dilution 5 %, 48 hours
[11] = Phase 2, Round 2, dilution 6 %, 24 hours
[12] = Phase 2, Round 2, dilution 6 %, 48 hours

| SMILES | Amount of new Gram-negative bacteria colonies [2] | Amount of new Gram-negative bacteria colonies [8] | Amount of new Gram-negative bacteria colonies [10] | Amount of new Gram-negative bacteria colonies [12] | Differential Value Scores, Average | Differential Value Scores, Round 1 | Differential Value Scores, Round 2 | Differential Value Scores, Round 3 | also measured |
| --- | --- | --- | --- | --- | --- | --- | --- | --- | --- |
| CN(C)CCCN(C)CCCN(C)C [C13, N,N,N′,N″,N″-pentamethyl-dipropylenetriamine] | 10^7 | 10^7 | 10^7 | 10^7 |  |  |  |  | Amount of new Gram-negative bacteria colonies [1]: 10^7; Amount of new Gram-negative bacteria colonies [3]: 10^7; Amount of new Gram-negative bacteria colonies [4]: 10^7; Amount of new Gram-negative bacteria colonies [5]: 10^3; Amount of new Gram-negative bacteria colonies [6]: 10^7; Amount of new Gram-negative bacteria colonies [7]: 10^2; Amount of new Gram-negative bacteria colonies [9]: 10^2; Amount of new Gram-negative bacteria colonies [11]: 10^2 |
| NCC1CCCCC1 [C8, Aminomethylcyclohexane] |  |  |  |  | 1.5 | 1 | 2.5 | 1 |  |
| NCCN(CCN)CCN [Example 7, Tris(2-aminoethyl)amine] | 10^3 | 10^2 | 10^2 | 10^2 |  |  |  |  | Biostatic efficacy regarding Gram-negative bacteria compared with the DCHA standard: surpassed the DCHA standard |
| CCC(N)CCN (stereo not shown) [C10, 1,3-pentanediamine] | 10^7 | 10^7 | 10^7 | 10^7 |  |  |  |  | Amount of new Gram-negative bacteria colonies [1]: 10^7; Amount of new Gram-negative bacteria colonies [3]: 10^5; Amount of new Gram-negative bacteria colonies [4]: 10^7; Amount of new Gram-negative bacteria colonies [5]: 10^3; Amount of new Gram-negative bacteria colonies [6]: 10^7; Amount of new Gram-negative bacteria colonies [7]: 10^2; Amount of new Gram-negative bacteria colonies [9]: 10^2; Amount of new Gram-negative bacteria colonies [11]: 10^2 |
| CC1CCCCC1N (stereo not shown) [C5, 2-methylcyclohexylamine] |  |  |  |  | 1.7 | 1 | 2.5 | 1.5 |  |
| CCCCCCCN [Example 3, Heptylamine] |  |  |  |  | 4.2 | 4 | 4 | 4.5 | Biostatic efficacy regarding Gram-negative bacteria compared with the DCHA standard: better biostatic performance than the DCHA control |
| CN(C)CCN(C)CCN(C)C [C14, Pentamethyldiethylene triamine] | 10^7 | 10^7 | 10^7 | 10^7 |  |  |  |  | Amount of new Gram-negative bacteria colonies [1]: 10^7; Amount of new Gram-negative bacteria colonies [3]: 10^7; Amount of new Gram-negative bacteria colonies [4]: 10^7; Amount of new Gram-negative bacteria colonies [5]: 10^7; Amount of new Gram-negative bacteria colonies [6]: 10^7; Amount of new Gram-negative bacteria colonies [7]: 10^3; Amount of new Gram-negative bacteria colonies [9]: 10^2; Amount of new Gram-negative bacteria colonies [11]: 10^3 |
| CCCCC(CC)CN(CC(CC)CCCC)CC(CC)CCCC (stereo not shown) [C9, Tris(2-ethylhexylamine)] | 10^7 | 10^7 | 10^7 | 10^7 |  |  |  |  | Amount of new Gram-negative bacteria colonies [1]: 10^7; Amount of new Gram-negative bacteria colonies [3]: 10^5; Amount of new Gram-negative bacteria colonies [4]: 10^7; Amount of new Gram-negative bacteria colonies [5]: 10^4; Amount of new Gram-negative bacteria colonies [6]: 10^7; Amount of new Gram-negative bacteria colonies [7]: 10^3; Amount of new Gram-negative bacteria colonies [9]: 10^2; Amount of new Gram-negative bacteria colonies [11]: 10^2 |
| CCCCCN [Comparative Example C4, Amylamine] |  |  |  |  | 1.7 | 1.5 | 2.5 | 1 | Biostatic efficacy regarding Gram-negative bacteria compared with the DCHA standard: worse biostatic capabilities than the DCHA control |
| NCCCCCCN [Comparative Example C1, 1,6-diaminohexane] |  |  |  |  | 2.5 | 2 | 4 | 1.5 |  |
| CC(C)CCCC(C)N (stereo not shown) [Example 1, 1,5-dimethylhexylamine] |  |  |  |  | 4.3 | 4.5 | 4 | 4.5 |  |
| NC1CCC(CC2CCC(N)CC2)CC1 (stereo not shown) [C11, 4,4′-methylene bis(cyclohexylamine)] | 10^7 | 10^7 | 10^7 | 10^7 |  |  |  |  | Amount of new Gram-negative bacteria colonies [1]: 10^7; Amount of new Gram-negative bacteria colonies [3]: 10^5; Amount of new Gram-negative bacteria colonies [4]: 10^7; Amount of new Gram-negative bacteria colonies [5]: 10^5; Amount of new Gram-negative bacteria colonies [6]: 10^7; Amount of new Gram-negative bacteria colonies [7]: 10^2; Amount of new Gram-negative bacteria colonies [9]: 10^2; Amount of new Gram-negative bacteria colonies [11]: 10^2 |
| NC1CCC(N)CC1 (stereo not shown) [Example 4, 1,4-cyclohexanediamine] |  |  |  |  | 3.7 | 4 | 4.5 | 2.5 | Biostatic efficacy regarding Gram-negative bacteria compared with the DCHA standard: better biostatic performance than the DCHA standard |
| NC1CCCCC1 [C7, Cyclohexylamine] |  |  |  |  | 1.5 | 1 | 2.5 | 1 |  |
| CCCCC(CC)CN (stereo not shown) [Example 2, 2-ethylhexylamine] |  |  |  |  | 4.3 | 4 | 4.5 | 4.5 |  |
| NC1CCCCC1N (stereo not shown) [C3, 1,2-cyclohexanediamine] |  |  |  |  | 2.3 | 2 | 4 | 1 | Biostatic efficacy regarding Gram-negative bacteria compared with the DCHA standard (listed as Comparative Example 3): performed below the DCHA standard |
| CCNC1CCCCC1 [C6, N-ethylcyclohexylamine] |  |  |  |  | 1.7 | 1.5 | 2.5 | 1 |  |
| NCC1CCCC(CN)C1 (stereo not shown) [C2, 1,3-bis(aminomethyl)cyclohexane] |  |  |  |  | 2.5 | 2.5 | 4 | 1 |  |
| CCCCCCCCN [Example 6, Octylamine] |  |  |  |  |  |  |  |  | Biostatic efficacy regarding Gram-negative bacteria compared with the DCHA standard: surpassed the DCHA standard; also recorded: better biostatic performance than the DCHA control |
